Test results: patent US20260070945A1, “MACROCYCLIC IMMUNOMODULATORS” (Bristol-Myers Squibb Company, priority 2022, published 2026)
pIC50: −log10 of the molar value. Where a SMILES comes first, the peptide text is derived from it. Bridges are numbered along the chain shown (N, C = ends). [ ]: non-standard residue; d: D form. The star is where a group is joined. ξ: configuration not given here. Phe(4-COOH) = N[C@@H](Cc1ccc(C(=O)O)cc1)C(=O)O; Bip = N[C@@H](Cc1ccc(-c2ccccc2)cc1)C(=O)O; Phe(3-Me) = Cc1cccc(C[C@H](N)C(=O)O)c1; Cha = N[C@@H](CC1CCCCC1)C(=O)O; Cit = NC(=O)NCCC[C@H](N)C(=O)O; Ile(3ξ) = CCC(C)[C@H](N)C(=O)O; Thr(3ξ) = CC(O)[C@H](N)C(=O)O; Carboxymethyl = O=C(O)C*; NMeA = CN[C@@H](C)C(=O)O; Aun = NCCCCCCCCCCC(=O)O; Dab = NCC[C@H](N)C(=O)O; AEEA = NCCOCCOCC(=O)O

Biological target: T1, PD-1/PD-L1 interaction (PE-labeled human PD-L1-Ig binding to Jurkat cell line over-expressing human PD-1) (Homo sapiens, UniProt Q15116)
T1 construct: expressed in transfected cells; host or cells: Jurkat
Experiment: Jurkat-PD-1 Cell Binding High-Content Screening Assay (CBA)
Conditions: Jurkat-hPD-1 cells, PE-labeled PD-L1-Ig 20 nM final; read-out: Jurkat HPD1 PDL1 IC50
Method in brief: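 High-content imaging read-out of PE-PD-L1-Ig binding (20 nM final, 1 h) to Jurkat-hPD-1 cells, after 2 h compound exposure at 37 °C in DMEM with 10% FCS. Nuclei counterstained with Hoechst 33342 after paraformaldehyde fixation.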

T1 sequence (Q15116 25-288): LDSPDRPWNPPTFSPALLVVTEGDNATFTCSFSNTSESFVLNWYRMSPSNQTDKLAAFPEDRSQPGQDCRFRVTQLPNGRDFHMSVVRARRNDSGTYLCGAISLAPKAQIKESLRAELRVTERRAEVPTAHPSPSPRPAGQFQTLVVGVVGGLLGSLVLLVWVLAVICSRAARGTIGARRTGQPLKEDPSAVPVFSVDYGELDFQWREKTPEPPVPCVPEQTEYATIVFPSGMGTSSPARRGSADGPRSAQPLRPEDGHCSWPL

pIC50 | SMILES
7.31 | CC(C)C[C@@H]1NC(=O)[C@H](Cc2c[nH]c3ccccc23)NC(=O)[C@H](CC(=O)O)NC(=O)[C@H](Cc2ccc(C(=O)O)cc2)NC(=O)[C@H](Cc2ccc(OCC(=O)O)cc2)NC(=O)CSC[C@@H](C(=O)NCCOCCOCC(=O)NCCCCCCCCCCC(=O)O)NC(=O)[C@H](C(C)O)NC(=O)[C@H](C(C)C)NC(=O)[C@H](CC2CCCCC2)NC(=O)[C@H](CCN)NC(=O)[C@@H](CC(C)C)NC(=O)[C@H](C)N(C)C(=O)[C@H](CCC(N)=O)NC(=O)[C@H](Cc2ccc(-c3ccccc3)cc2)NC1=O (stereo partly drawn) [Example 2285] ({CH2CO}-Y(Carboxymethyl)[Phe(4-COOH)]DWL[Bip]Q[NMeA][dL][Dab][Cha]V[Thr(3ξ)]C[AEEA][Aun]-OH; thioether N-14)
7.56 | Cc1cccc(C[C@@H]2NC(=O)[C@H](CC(=O)O)NC(=O)[C@H](Cc3ccc(C(=O)O)cc3)NC(=O)[C@H](Cc3ccc(OCC(=O)O)cc3)NC(=O)CSC[C@@H](C(=O)NCCOCCOCC(=O)NCCCCCCCCCCC(=O)O)NC(=O)[C@H](CCCNC(N)=O)NC(=O)[C@H](C(C)C)NC(=O)[C@H](CC3CCCCC3)NC(=O)[C@H](CCN)NC(=O)[C@@H](CC(C)C)NC(=O)[C@H](C)N(C)C(=O)[C@H](C(C)C)NC(=O)[C@H](Cc3ccc(-c4ccccc4)cc3)NC(=O)[C@H](CC(C)C)NC2=O)c1 [Example 2286] ({CH2CO}-Y(Carboxymethyl)[Phe(4-COOH)]D[Phe(3-Me)]L[Bip]V[NMeA][dL][Dab][Cha]V[Cit]C[AEEA][Aun]-OH; thioether N-14)
7.75 | CCC(C)[C@@H]1NC(=O)[C@H](Cc2ccc(-c3ccccc3)cc2)NC(=O)[C@H](C(C)C)NC(=O)[C@H](Cc2c[nH]c3ccccc23)NC(=O)[C@H](CC(=O)O)NC(=O)[C@H](Cc2ccc(OCC(=O)O)cc2)NC(=O)[C@H](Cc2ccc(OCC(=O)O)cc2)NC(=O)CSC[C@@H](C(=O)N[C@H](CC(N)=O)C(=O)NCCCCCCCCCCC(=O)O)NC(=O)[C@H](CCCNC(=N)N)NC(=O)[C@H](C(C)C)NC(=O)[C@H](CC2CCCCC2)NC(=O)[C@H](CCN)NC(=O)[C@@H](CC(C)C)NC(=O)[C@H](C)N(C)C1=O (stereo partly drawn) [Example 2287] ({CH2CO}-Y(Carboxymethyl)Y(Carboxymethyl)DWV[Bip][Ile(3ξ)][NMeA][dL][Dab][Cha]VRC[dN][Aun]-OH; thioether N-14)
7.89 | CCC(C)[C@@H]1NC(=O)[C@H](Cc2ccc(-c3ccccc3)cc2)NC(=O)[C@H](C(C)C)NC(=O)[C@H](Cc2cccc(C)c2)NC(=O)[C@H](CC(=O)O)NC(=O)[C@H](Cc2ccc(OCC(=O)O)cc2)NC(=O)[C@H](CCCNC(=N)N)NC(=O)CSC[C@@H](C(=O)N[C@H](CC(N)=O)C(=O)NCCCCCCCCCCC(=O)O)NC(=O)[C@H](CCCNC(N)=O)NC(=O)[C@H](C(C)C)NC(=O)[C@H](CC2CCCCC2)NC(=O)[C@H](CCN)NC(=O)[C@@H](CC(C)C)NC(=O)[C@H](C)N(C)C1=O (stereo partly drawn) [Example 2288] ({CH2CO}-RY(Carboxymethyl)D[Phe(3-Me)]V[Bip][Ile(3ξ)][NMeA][dL][Dab][Cha]V[Cit]C[dN][Aun]-OH; thioether N-14)
8.12 | CC(=O)NCCCC[C@@H]1NC(=O)[C@H](Cc2ccc(-c3ccccc3)cc2)NC(=O)[C@H](C(C)C)NC(=O)[C@H](Cc2cccc(C)c2)NC(=O)[C@H](CC(=O)O)NC(=O)[C@H](Cc2ccc(OCC(=O)O)cc2)NC(=O)[C@H](CCCNC(=N)N)NC(=O)CSC[C@@H](C(=O)NCCOCCOCC(=O)NCCCCCCCCCCC(=O)O)NC(=O)[C@H](C(C)O)NC(=O)[C@H](C(C)C)NC(=O)[C@H](CC2CCCCC2)NC(=O)[C@H](CCN)NC(=O)[C@@H](CC(C)C)NC(=O)[C@H](C)N(C)C1=O (stereo partly drawn) [Example 2289] ({CH2CO}-RY(Carboxymethyl)D[Phe(3-Me)]V[Bip]K(Ac)[NMeA][dL][Dab][Cha]V[Thr(3ξ)]C[AEEA][Aun]-OH; thioether N-14)
7.74 | CC(C)C[C@H]1NC(=O)[C@H](C)N(C)C(=O)[C@H](C(C)C)NC(=O)[C@H](Cc2ccc(-c3ccccc3)cc2)NC(=O)[C@H](C(C)C)NC(=O)[C@H](Cc2c[nH]c3ccccc23)NC(=O)[C@H](CC(=O)O)NC(=O)[C@H](Cc2ccc(C(=O)O)cc2)NC(=O)[C@H](Cc2ccc(OCC(=O)O)cc2)NC(=O)CSC[C@@H](C(=O)N[C@@H](CCN)C(=O)NCCCCCCCCCCC(=O)O)NC(=O)[C@H](CCCNC(N)=O)NC(=O)[C@H](C(C)C)NC(=O)[C@H](CC2CCCCC2)NC(=O)[C@H](CCN)NC1=O [Example 2290] ({CH2CO}-Y(Carboxymethyl)[Phe(4-COOH)]DWV[Bip]V[NMeA][dL][Dab][Cha]V[Cit]C[Dab][Aun]-OH; thioether N-14)
7.54 | CC(C)C[C@@H]1NC(=O)[C@H](Cc2c[nH]c3ccccc23)NC(=O)[C@H](CC(=O)O)NC(=O)[C@H](Cc2ccc(OCC(=O)O)cc2)NC(=O)[C@H](C(C)O)NC(=O)CSC[C@@H](C(=O)NCCOCCOCC(=O)NCCCCCCCCCCC(=O)O)NC(=O)[C@H](CCC(=O)O)NC(=O)[C@H](C(C)C)NC(=O)[C@H](CC2CCCCC2)NC(=O)[C@H](CCN)NC(=O)[C@@H](CC(C)C)NC(=O)[C@H](C)N(C)C(=O)[C@H](C(C)C)NC(=O)[C@H](Cc2ccc(-c3ccccc3)cc2)NC1=O (stereo partly drawn) [Example 2291] ({CH2CO}-[Thr(3ξ)]Y(Carboxymethyl)DWL[Bip]V[NMeA][dL][Dab][Cha]VEC[AEEA][Aun]-OH; thioether N-14)
7.69 | Cc1cccc(C[C@@H]2NC(=O)[C@H](CC(=O)O)NC(=O)[C@H](Cc3ccc(C(=O)O)cc3)NC(=O)[C@H](Cc3ccc(OCC(=O)O)cc3)NC(=O)CSC[C@@H](C(=O)N[C@@H](CCN)C(=O)NCCCCCCCCCCC(=O)O)NC(=O)[C@H](CCC(=O)O)NC(=O)[C@H](C(C)C)NC(=O)[C@H](CC3CCCCC3)NC(=O)[C@H](CCN)NC(=O)[C@@H](CC(C)C)NC(=O)[C@H](C)N(C)C(=O)[C@H](C(C)C)NC(=O)[C@H](Cc3ccc(-c4ccccc4)cc3)NC(=O)[C@H](CC(C)C)NC2=O)c1 [Example 2293] ({CH2CO}-Y(Carboxymethyl)[Phe(4-COOH)]D[Phe(3-Me)]L[Bip]V[NMeA][dL][Dab][Cha]VEC[Dab][Aun]-OH; thioether N-14)
7.70 | Cc1cccc(C[C@@H]2NC(=O)[C@H](CC(=O)O)NC(=O)[C@H](Cc3ccc(C(=O)O)cc3)NC(=O)[C@H](Cc3ccc(OCC(=O)O)cc3)NC(=O)CSC[C@@H](C(=O)N[C@@H](CCN)C(=O)NCCCCCCCCCCC(=O)O)NC(=O)[C@H](CCCNC(N)=O)NC(=O)[C@H](C(C)C)NC(=O)[C@H](CC3CCCCC3)NC(=O)[C@H](CCN)NC(=O)[C@@H](CC(C)C)NC(=O)[C@H](C)N(C)C(=O)[C@H](C(C)C)NC(=O)[C@H](Cc3ccc(-c4ccccc4)cc3)NC(=O)[C@H](CC(C)C)NC2=O)c1 [Example 2294] ({CH2CO}-Y(Carboxymethyl)[Phe(4-COOH)]D[Phe(3-Me)]L[Bip]V[NMeA][dL][Dab][Cha]V[Cit]C[Dab][Aun]-OH; thioether N-14)
7.99 | CC(=O)NCCCC[C@@H]1NC(=O)[C@H](Cc2ccc(-c3ccccc3)cc2)NC(=O)[C@H](C(C)C)NC(=O)[C@H](Cc2cccc(C)c2)NC(=O)[C@H](CC(=O)O)NC(=O)[C@H](Cc2ccc(C(=O)O)cc2)NC(=O)[C@H](Cc2ccc(OCC(=O)O)cc2)NC(=O)CSC[C@@H](C(=O)NCCOCCOCC(=O)NCCCCCCCCCCC(=O)O)NC(=O)[C@H](CCCNC(N)=O)NC(=O)[C@H](C(C)C)NC(=O)[C@H](CC2CCCCC2)NC(=O)[C@H](CCN)NC(=O)[C@@H](CC(C)C)NC(=O)[C@H](C)N(C)C1=O [Example 2295] ({CH2CO}-Y(Carboxymethyl)[Phe(4-COOH)]D[Phe(3-Me)]V[Bip]K(Ac)[NMeA][dL][Dab][Cha]V[Cit]C[AEEA][Aun]-OH; thioether N-14)
7.46 | Cc1cccc(C[C@@H]2NC(=O)[C@H](CC(=O)O)NC(=O)[C@H](Cc3ccc(C(=O)O)cc3)NC(=O)[C@H](Cc3ccc(OCC(=O)O)cc3)NC(=O)CSC[C@@H](C(=O)NCCOCCOCC(=O)NCCCCCCCCCCC(=O)O)NC(=O)[C@H](CCC(=O)O)NC(=O)[C@H](C(C)C)NC(=O)[C@H](CC3CCCCC3)NC(=O)[C@H](CCN)NC(=O)[C@@H](CC(C)C)NC(=O)[C@H](C)N(C)C(=O)[C@H](C(C)C)NC(=O)[C@H](Cc3ccc(-c4ccccc4)cc3)NC(=O)[C@H](CC(C)C)NC2=O)c1 [Example 2296] ({CH2CO}-Y(Carboxymethyl)[Phe(4-COOH)]D[Phe(3-Me)]L[Bip]V[NMeA][dL][Dab][Cha]VEC[AEEA][Aun]-OH; thioether N-14)
8.07 | CCC(C)[C@@H]1NC(=O)[C@H](Cc2ccc(-c3ccccc3)cc2)NC(=O)[C@H](C(C)C)NC(=O)[C@H](Cc2c[nH]c3ccccc23)NC(=O)[C@H](CC(=O)O)NC(=O)[C@H](Cc2ccc(OCC(=O)O)cc2)NC(=O)[C@H](Cc2ccc(OCC(=O)O)cc2)NC(=O)CSC[C@@H](C(=O)N[C@H](CC(N)=O)C(=O)NCCCCCCCCCCC(=O)O)NC(=O)[C@H](CCCNC(N)=O)NC(=O)[C@H](C(C)C)NC(=O)[C@H](CC2CCCCC2)NC(=O)[C@H](CCN)NC(=O)[C@@H](CC(C)C)NC(=O)[C@H](C)N(C)C1=O (stereo partly drawn) [Example 2297] ({CH2CO}-Y(Carboxymethyl)Y(Carboxymethyl)DWV[Bip][Ile(3ξ)][NMeA][dL][Dab][Cha]V[Cit]C[dN][Aun]-OH; thioether N-14)
7.61 | CCC(C)[C@@H]1NC(=O)[C@H](Cc2ccc(-c3ccccc3)cc2)NC(=O)[C@H](C(C)C)NC(=O)[C@H](Cc2cccc(C)c2)NC(=O)[C@H](CC(=O)O)NC(=O)[C@H](Cc2ccc(OCC(=O)O)cc2)NC(=O)[C@H](CCCNC(=N)N)NC(=O)CSC[C@@H](C(=O)N[C@H](CC(N)=O)C(=O)NCCCCCCCCCCC(=O)O)NC(=O)[C@H](C(C)O)NC(=O)[C@H](C(C)C)NC(=O)[C@H](CC2CCCCC2)NC(=O)[C@H](CCN)NC(=O)[C@@H](CC(C)C)NC(=O)[C@H](C)N(C)C1=O (stereo partly drawn) [Example 2298] ({CH2CO}-RY(Carboxymethyl)D[Phe(3-Me)]V[Bip][Ile(3ξ)][NMeA][dL][Dab][Cha]V[Thr(3ξ)]C[dN][Aun]-OH; thioether N-14)
